The record followed here is BindingDB's records for doi:10.1016/j.bmcl.2010.01.042 (Bristol Myers Squibb, 2010).

pIC50: −log10 of the molar value. Some results are limits rather than exact numbers.

The experiment addresses Insulin-like growth factor 1 receptor (Homo sapiens) (UniProt P08069). The experiment in a line: Inhibition of IGFR1.

Sequence of Insulin-like growth factor 1 receptor (Homo sapiens) (P08069 whole entry, looked up): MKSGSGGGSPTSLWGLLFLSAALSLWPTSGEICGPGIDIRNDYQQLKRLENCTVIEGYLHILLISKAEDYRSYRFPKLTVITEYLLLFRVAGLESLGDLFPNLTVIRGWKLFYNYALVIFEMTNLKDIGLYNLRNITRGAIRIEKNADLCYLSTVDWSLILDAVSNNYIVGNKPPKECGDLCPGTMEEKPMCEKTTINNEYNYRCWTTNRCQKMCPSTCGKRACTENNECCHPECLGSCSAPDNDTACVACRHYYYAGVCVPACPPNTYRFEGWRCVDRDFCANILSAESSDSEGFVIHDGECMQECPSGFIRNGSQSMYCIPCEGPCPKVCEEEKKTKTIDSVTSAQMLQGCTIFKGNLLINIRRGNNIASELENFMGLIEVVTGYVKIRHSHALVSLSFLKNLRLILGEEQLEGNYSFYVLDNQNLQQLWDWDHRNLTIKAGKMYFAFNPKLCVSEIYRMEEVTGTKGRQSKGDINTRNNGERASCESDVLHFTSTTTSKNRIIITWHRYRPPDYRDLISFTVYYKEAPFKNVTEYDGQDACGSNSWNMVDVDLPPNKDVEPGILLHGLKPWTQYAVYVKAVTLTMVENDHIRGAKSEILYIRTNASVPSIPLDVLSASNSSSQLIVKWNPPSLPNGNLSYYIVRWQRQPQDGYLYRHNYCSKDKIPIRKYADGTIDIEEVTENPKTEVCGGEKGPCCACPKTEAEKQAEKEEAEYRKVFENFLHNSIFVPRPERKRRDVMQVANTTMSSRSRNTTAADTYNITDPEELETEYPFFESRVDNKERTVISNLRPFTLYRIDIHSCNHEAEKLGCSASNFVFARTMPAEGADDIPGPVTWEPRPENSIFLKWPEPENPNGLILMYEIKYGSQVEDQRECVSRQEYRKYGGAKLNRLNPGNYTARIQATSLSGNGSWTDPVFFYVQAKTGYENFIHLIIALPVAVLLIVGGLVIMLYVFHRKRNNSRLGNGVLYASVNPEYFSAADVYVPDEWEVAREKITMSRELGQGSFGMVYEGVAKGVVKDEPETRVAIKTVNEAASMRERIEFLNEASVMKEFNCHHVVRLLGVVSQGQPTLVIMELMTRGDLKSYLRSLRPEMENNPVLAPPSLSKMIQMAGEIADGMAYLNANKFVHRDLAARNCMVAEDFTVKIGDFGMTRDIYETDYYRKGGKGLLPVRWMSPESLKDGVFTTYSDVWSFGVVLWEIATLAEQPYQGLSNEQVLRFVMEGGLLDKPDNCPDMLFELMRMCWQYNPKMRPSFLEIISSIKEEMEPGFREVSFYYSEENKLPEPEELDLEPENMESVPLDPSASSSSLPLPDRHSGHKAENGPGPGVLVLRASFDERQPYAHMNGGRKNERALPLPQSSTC

For the compound `O=C(Nc1ccc(F)cc1F)c1cccnc1Nc1ccc(Oc2ccnc3[nH]ccc23)c(F)c1` [2-(4-(1H-pyrrolo[2,3-b]pyridin-4-yloxy)-3-fluorophenylamino)-N-(2,4-difluorophenyl)nicotinamide], the pIC50 (in general, the negative decadic logarithm of the IC50, by convention in mol/L) is under 4.30.
